Three compounds from patent US20170056380A1, “Systems, Methods, Techniques, and Compounds in Research and Treatment of Portal Hypertension and other Conditions” (priority 2014, published 2017) can be followed below.

In assay [1] the target is T1, eNOS (Rattus norvegicus, UniProt Q62600).
T1 construct: endogenous in cells; host or cells: primary liver sinusoidal endothelial cells from male Sprague-Dawley rats (normal or bile-duct-ligated)
T1 sequence (Q62600 1-1202): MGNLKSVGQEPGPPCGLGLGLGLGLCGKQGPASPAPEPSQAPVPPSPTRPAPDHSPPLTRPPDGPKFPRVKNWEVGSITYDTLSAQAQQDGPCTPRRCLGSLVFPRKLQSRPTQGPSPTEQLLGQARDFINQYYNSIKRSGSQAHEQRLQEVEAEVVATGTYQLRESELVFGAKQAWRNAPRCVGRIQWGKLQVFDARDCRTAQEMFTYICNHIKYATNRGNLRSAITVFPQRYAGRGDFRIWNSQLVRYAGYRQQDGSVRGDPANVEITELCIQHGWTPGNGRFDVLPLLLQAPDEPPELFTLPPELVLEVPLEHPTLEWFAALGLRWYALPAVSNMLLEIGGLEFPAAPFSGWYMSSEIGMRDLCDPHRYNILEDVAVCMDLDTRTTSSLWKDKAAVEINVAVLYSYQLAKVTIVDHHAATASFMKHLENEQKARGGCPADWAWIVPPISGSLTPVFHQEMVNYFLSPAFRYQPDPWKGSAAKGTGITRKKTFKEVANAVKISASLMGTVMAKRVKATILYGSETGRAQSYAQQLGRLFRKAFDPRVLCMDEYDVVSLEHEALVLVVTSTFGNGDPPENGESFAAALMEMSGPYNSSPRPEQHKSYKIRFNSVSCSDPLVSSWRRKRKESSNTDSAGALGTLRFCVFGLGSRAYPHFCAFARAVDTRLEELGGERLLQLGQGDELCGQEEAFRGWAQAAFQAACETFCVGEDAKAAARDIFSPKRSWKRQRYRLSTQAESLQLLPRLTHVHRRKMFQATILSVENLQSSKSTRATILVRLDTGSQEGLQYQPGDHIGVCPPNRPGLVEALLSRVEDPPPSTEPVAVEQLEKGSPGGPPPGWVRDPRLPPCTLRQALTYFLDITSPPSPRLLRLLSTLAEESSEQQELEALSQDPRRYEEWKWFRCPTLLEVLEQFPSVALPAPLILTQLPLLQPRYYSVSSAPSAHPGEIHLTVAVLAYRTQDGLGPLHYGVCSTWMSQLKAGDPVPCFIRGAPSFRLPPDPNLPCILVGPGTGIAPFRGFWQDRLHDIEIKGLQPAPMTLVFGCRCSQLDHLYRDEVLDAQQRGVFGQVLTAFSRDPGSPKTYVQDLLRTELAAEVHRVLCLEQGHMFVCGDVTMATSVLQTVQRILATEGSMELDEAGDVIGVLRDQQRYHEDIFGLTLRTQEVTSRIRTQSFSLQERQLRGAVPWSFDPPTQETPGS
Nature of the assay: NOS activity assay (conversion of L-[3H]arginine to L-[3H]citrulline) in sinusoidal endothelial cell lysates. Format: cell-based. The following applies: cicletanine 100 nM plus inhibitor. The method, then:
(§1) Cell isolation and culture. Sinusoidal endothelial cells were isolated from male Sprague-Dawley rats (450-500 g) (Harlan, Indianapolis, Ind.). In brief, after in situ perfusion of the liver with 20 mg/100 mg pronase (Roche Molecular Biochemicals, Indianapolis, Ind.), followed by collagenase (Worthington Biochemical, Lakewood, N.J.), dispersed cell suspensions were removed from a layered discontinuous density gradient of 8.2 and 15.6% Accudenz (Accurate Chemical and Scientific, Westbury, N.Y.), further purified by centrifugal elutriation (18 ml/min flow), and were grown in medium containing 20% serum (10% horse/calf). The purity of endothelial cells was documented by their uptake of fluorescently labeled di-l-acetoacetylated low-density lipoprotein as described (21). Only primary sinusoidal endothelial isolates of >95% purity were used for study. Experiments were performed with cells frorrr a minimum three different isolations (for all experiments).
(§2) Animal model of liver injury and portal hypedension. Liver injury and portal hypertension were induced by performing bile duct ligation in 450- to 500-gram male retired breeder Sprague-Dawley rats as described in Liu and 20- to 25-gram male BALB/c mice. Briefly, bile duct ligation was performed by surgical isolation and ligation of the common bile duct. This model creates a portal-based fibrogenic response and portal hypertension 10-14 days after surgery (Liu). For study of injured sinusoidal endothelial cells, we used the rat model of bile duct ligation (10-14 days postsurgery); for in vivo study (primarily to conserve the use of active compound), we used the mouse model of bile duct ligation (examining portal pressure 4 wk postsurgery). In sham-operated rats or mice, laparotomy without isolation and section of the bile duct was performed. Studies were approved by the local Institutional Animal Care and Use Committees. Portal pressure measurement. Portal hypertension was induced in male BALB/c mice by bile duct ligation as above. Cicletanine (5 mg·kg^−1·day^−1) or vehicle was given by gavage as a single daily dose for 10 days before portal pressure measurement as described in Liue. In brief, mice were anesthetized, and an intravenous catheter (Becton Dickinson Vascular Access, Sandy, Utah) was introduced in the portal vein and secured with a silk tie. A calibrated low-pressure transducer (Digi-Med, Louisville, Ky.) was connected to the portal vein catheter, and portal pressure was recorded continuously using the Digi-Med Integrator 200 System (Digi-bled).
NOS activity assay. NOS activity from sinusoidal endothelial cell lysates was assessed by measuring the conversion of L-[3H]arginine to L-[3H]citrulline as described (6) per the manufacturer's instructions (Cayman Chemical). In brief, triplicate samples of cell lysates were incubated with a reaction buffer containing 3 pmol of L-[3H]arginine (45 Ci/mmol), 0-50 μM arginine, 1 mM NADPH, 100 nM calmodulin (CaM), 2 mM CaCl2, and 30 μM BH4 in a volume of 50-100 μl at room temperature for 30 min and at 37° C. for an additional 30 min in the presence and absence of 1 mM NG-nitro-L-arginine methyl ester (L-NAME). […] Radiolabeled counts per minute of generated L-citrulline were measured and used to determine L-NAME-inhibitable NOS activity (thus, each experiment included total counts and background counts). […] The reductase activities of sinusoidal endothelial cells with or without cicletanine exposure were determined using the NADPH-dependent cytochrome c assay. […]

Assay [2] concerns NO production in sinusoidal endothelial cells. Nature of the assay: NO measurement (nitrite in conditioned medium of sinusoidal endothelial cells). It counts as cell-based, rat. The following applies: for effect on cicletanine-induced NO production: PD-98059 10 μM 30 min, then cicletanine 100 nM 2 h. On the procedure:
as §1, §2
NO measurement. To assess NO production, we analyzed the release of nitrite, the stable breakdown product of NO, using a nitrite/nitrate assay kit (Cayman Chemicals, Ann Arbor, Mich.), following the manufacturer's instructions. Briefly, conditioned medium from sinusoidal endothelial cells with or without cicletanine treatment were loaded on a 96-well plate and mixed with both enzyme cofactor and nitrate reductase. After incubation at room temperature for 3 h, 100 μl Griess reagent mix were added to each well. After 10 more minutes at room temperature, the absorbance of each well was determined on a microplate reader at 540 nm, and the nitrite concentrations were deduced from a standard curve.

A further assay deals with protein kinase G (PKG). Kind of assay: Phospho-VASP immunoblotting for PKG activity in stellate cells alone or cocultured with sinusoidal endothelial cells. Format: cell-based, rat. To be noted: coculture, L-NAME 1 μM 4 h, then cicletanine 100 nM. On the procedure:
For coculture experiments, freshly isolated stellate cells and freshly isolated sinusoidal endothelial cells were isolated separately and mixed together on collagen-coated plates and cultured for 5 days. Sinusoidal endothelial cells were plated at a density of 200,000 cells/cm2, and stellate cells were at a density of 65,000 cells/cm2.
(§3) Immunoblotting, Immunoblotting was performed by using specified primary antibodies, including anti-eNOS antibody (1:1,000; BD Transduction Laboratories, San Jose, Calif.), anti-phospho-eNOS-Ser^1177 (1:1,000; BD Transduction Laboratories or Cell Signaling Technology), anti-phospho-Akt, anti-Akt (Cell Signaling Technology, Beverly, Mass.), and horseradish peroxidase-conjugated secondary antibody. Specific signals were visualized using enhanced chemiluminescence as per the manufacturer's instructions and were scanned and quantitated with standard software.

In assay [3] the test system is eNOS. Kind of assay: eNOS phosphorylation (Ser1177) and total eNOS by immunoblotting in sinusoidal endothelial cells. It counts as cell-based, rat. To be noted: PD-98059 10 μM 30 min, then cicletanine 100 nM 2 h. The method, then: as §1, §3, §2

Take `COC(=O)[C@@H](N)CCCNC(=N)N[N+](=O)[O-]` [L-NAME, NG-nitro-L-arginine methyl ester]: at eNOS [1], the “effect on cicletanine-induced eNOS activity” value is reported as “inhibitable”. Also, the “effect on nitrite production” value in assay [2] (L-NAME 1 μM preexposure 4 h, then cicletanine 2 h) was “inhibited”. Moreover, the “effect on cicletanine-stimulated VASP phosphorylation” value in the assay with protein kinase G (PKG) is “inhibited”.

`COc1cccc(-c2cc(=O)c3ccccc3o2)c1N` [PD-98059]: the “effect on cicletanine-induced eNOS phosphorylation” value in the assay on eNOS [3] is reported as “blocked”; with eNOS [3] (listed as PD-098059), “abolished”. In addition, the “effect on cicletanine-induced NO production” value in assay [2] is on record as “blocked”; in assay [2] (listed as PD-098059), “abolished”.

Consider `Cc1ncc2c(c1O)COC2c1ccc(Cl)cc1` (centres unmarked) [S-cicletanine], for which, in assay [2] (comparison of isomers), the “production of nitrite, (+) isomer compared with (−) isomer” value is on record as “more effective than the (−) isomer of cicletanine”.
